Test results as given in patent US5654282A, “Selectin binding glycopeptides” (Glycomed Incorporated, priority 1995, dated 1997).

How the values were obtained:
L-selectin [1] = experiment: ELISA assay, selectin-IgG chimera binding to 2,3 sLex glycolipid (L-selectin); conditions: FIG. 4; tested at several concentrations; results expressed as percent of control binding; values only in the figure
Procedure: (§1) An ELISA assay (Foxall et al, The Journal of Cell Biology (1992) 117:895) is preferably used which consists of the following three steps:
(§2) 1. 2,3 sLex glycolipid is transferred into microtitre wells as solutions and then evaporated off. Excess, which remained unattached, is washed off with water. The wells are then blocked with a blocking agent, preferably BSA.
(§3) 2. Preparation of "multivalent" receptor of the Selectin-IgG chimera is carried out by combining the respective chimera with biotin labelled goat F(ab')2 anti-human IgG (Fc specific) and streptavidin-alkaline phosphatase diluted appropriately and incubated. This allows the soluble multivalent receptor complex to form.
(§4) 3. Potential inhibitors such as glyco-amino acids or glycopeptides of structural formula I are allowed to react with the soluble receptor. This solution is then placed in the microtitre wells that are prepared in step 1. The plate is incubated to allow the soluble receptor to bind to its natural ligand. In the presence of a strong inhibitor only a few of the receptors should be free to bind to the microtitre plate coated with the natural ligand.
(§5) The positive control is the signal produced by the soluble receptor when it is allowed to react with the natural ligand in the microtitre wells in the absence of any inhibitor. This is considered 100% binding. The signal produced by the receptor that is previously treated with an inhibitor (recorded as O.D.), is divided by the signal produced by the positive control and multiplied by 100 to calculate the % receptor bound to the well in the presence of the inhibitor. The reciprocal of this is the % inhibition.
(§6) The glyco-amino acids or glycopeptides of structural formula I can be tested for their ability to bind to a selectin receptor and/or block the binding site of the receptor and thereby prevent a natural ligand from binding to the selectin receptor (Foxall et al, The Journal of Cell Biology (1992) 117:895). A generalized procedure for testing the ligands is given below.
(§7) An ELISA assay is preferably used which consisted of the following three steps:
1. 2,3 sLex glycolipid (25 picomol/well) was transferred into microtitre wells as solutions and evaporated off. Excess, which remained unattached, was washed off with water. The wells were blocked with 5% BSA at room temperature for an hour and washed with PBS containing 1 mM calcium.
2. Preparation of "multivalent" receptor of the Selectin-IgG chimera was carried out by combining the respective chimera (1 μg/mL) with biotin labelled goat F(ab')2 anti-human IgG (Fc specific) and streptavidin-alkaline phosphatase diluted 1:1000 in 1% BSA-PBS (1 mM calcium) and incubating at 37° C. for 15 min. This allowed the soluble multivalent receptor complex to form.
3. Potential inhibitors such as glyco-amino acids or glycopeptides of structural formula I were allowed to react with the soluble receptor at 37° C. for 45 min. This test assumes that optimal binding, between the soluble phase receptor complex and the inhibitor (non-natural ligand), would occur within this time frame. This solution was placed in the microtitre wells that were prepared in step 1. The plate was incubated at 37° C. for 45 minutes to allow the soluble receptor to bind to its natural ligand. In the presence of a strong inhibitor only a few receptors would be free to bind to the microtitre plate coated with the natural ligand.
as §5, with “control was” for “control is”, “it was” for “it is”, “This was” for “This is”, “that was” for “that is”, “O.D.), was” for “O.D.), is”

P-selectin [2] = experiment: ELISA assay, selectin-IgG chimera binding to 2,3 sLex glycolipid (P-selectin); conditions: FIG. 5; tested at several concentrations; results expressed as percent of control binding; values only in the figure
Procedure: as §1, §2, §3, §4, §5, §6, §7
1. 2,3 sLex glycolipid (25 picomol/well) was transferred into microtitre wells as solutions and evaporated off. Excess, which remained unattached, was washed off with water. […]
as §5, with “was” for “is”, “This is considered 100% binding.” left out, “The reciprocal of this is the % inhibition.” left out

P-selectin [3] = experiment: P-Selectin/HL-60 assay; assay type: cell-based; conditions: FIG. 6; HL-60 cells; tested at several concentrations; values only in the figure
Description: The glyco-amino acids or glycopeptides of structural formula I can be tested for their ability to inhibit P-selectin binding to its native ligand. A generalized procedure for testing the ligands is given below. A P-selectin/HL-60 assay is preferably used which consists of the following steps:
1. HL-60 cells are harvested and pelleted by centrifugation. The cells are washed, counted and the volume adjusted appropriately.
2. PVC microtiter plate is blocked with a blocking agent, and washed with TBS-BSA.
3. P-selectin is diluted appropriately in BSA-TBS Ca containing goat F(ab')2 anti-human IgG (Fc spec) and streptavidin-alkaline phosphatase. Positive controls have DMF added to equal the highest concentration of DMF in the sample compounds.
4. Ligands are incubated at room temperature with brisk rotation. […]
Para-nitrophenylphosphonate is added to the plate. […] Aliqouts from each well is transferred to a polystyrene microtiter plate and O.D. read at 405 nm. […] The signal produced by the receptor that is previously treated with an inhibitor (recorded as O.D.), is divided by the signal produced by the positive control and multiplied by 100 to calculate the % receptor bound to the well in the presence of the inhibitor. […]
1. […] The cells were washed three times with TBS without Ca, counted and the volume adjusted to 1.9×10^6 /ml in 1% BSA-TBS Ca just prior to use. […]

L-selectin [4] = experiment: Stamper-Woodruff assay (lymphocyte adhesion to HEV of lymph node frozen sections); assay type: cell-based, Swiss Webster mice; Sprague-Dawley rats; conditions: FIG. 7; lymphocyte binding to HEV, percent of relative binding; values only in the figure
Description: (§8) Lymphocytes are known to circulate from blood to lymphoid tissues via high endothelial venules (HEV) on lymph nodes. L-selectin is expressed on the surface of lymphocytes and is believed to mediate lymphocyte adhesion by binding to the natural ligand on the HEV. The glyco-amino acids or glycopeptides of structural formula I can be tested for their ability to bind to a selectin receptor and/or block the binding site of the receptor and thereby prevent a natural ligand from binding to the selectin receptor. See, for example, Stoolman et al, The Journal of Cell Biology (1983) 96:722. The Stamper-Woodruff assay is well known in the art, and generally consists of the following three steps:
1. Preparation of the lymphocytes:
(a) The lymphocytes are obtained from the mesenteric nodes of female Swiss Webster mice, by gently teasing tissues with phosphate buffered saline (PBS). The cells are obtained by gently squeezing the cells from the tissues. The cells are dispersed and the cell clumps are removed. The single cell suspension is suspended, washed, and kept on ice until use (less than two hours). Cells are counted and prepared at an appropriate concentration.
(b) The superficial and deep cervical lymph nodes of female Sprague-Dawley rats are dissected and prepared in the same way as the mice.
2. Preparation of frozen sections:
Superficial or deep cervical lymph nodes are dissected from the animals, snap frozen, and immediately placed in a cryostat for sectioning. 10-μm sections are prepared and transferred onto glass slides, and air dried.
3. Potential inhibitors are added to lymphocyte suspensions 10-30 minutes before the start of the binding assay, and unless otherwise stated, are present throughout the subsequent binding incubation.
The frozen sections are used in the order in which they are cut. Aliquots of untreated lymphocytes (positive control), suspensions containing fucoidin (negative control) and suspensions containing potential inhibitors are layered on the sections in an arbitrary sequence such that the control and each test substance are represented once in a series.
The binding of the lymphocytes to the HEV is easily distinguishable from binding elsewhere by virtue of the characteristic picture of tightly packed, darkly stained lymphocytes overlaying the histologically distinctive HEV. The number of adherent lymphocytes on each HEV are counted and the average number of adherent cells per HEV (cells bound per HEV) is calculated. The results are expressed as a percent of relative binding, wherein the positive control is considered to be 100% binding.
as §8, with “were” for “can be”
(a) The lymphocytes were obtained from the mesenteric nodes of female Swiss Webster mice (23-27 g), by gently teasing tissues by phosphate buffered saline (PBS). […] Cells were counted and prepared at 3-4×10^7 cells/ml. […]

| Compound | inhibition of the binding of sLe^x to L-selectin (L-selectin [1]) | inhibition of the binding of sLe^x to P-selectin (P-selectin [2]) | inhibition of the binding of sLe^x to P-selectin in the HL-60 assay (P-selectin [3]) | inhibitory effects in the Stamper-Woodruff assay (cell adhesion) (L-selectin [4]) |
| --- | --- | --- | --- | --- |
| C[C@@H]1O[C@@H](CC(=O)N2CCC[C@H]2C(=O)N[C@@H](Cc2ccccc2)C(=O)O)[C@@H](O)[C@H](O)[C@@H]1O [#1, N-[(1-deoxy-α-L-fucopyranosyl)acetyl]-L-proline-L-phenylalanine] | inhibit the binding of sLe^x to L-selectin | inhibit the binding of sLe^x to P-selectin | inhibit the binding of sLe^x to P-selectin | inhibitory effects |
| C[C@H](NC(=O)C[C@@H]1O[C@@H](C)[C@@H](O)[C@@H](O)[C@@H]1O)C(=O)N1CCC[C@H]1C(=O)N[C@@H](Cc1ccccc1)C(=O)O [#2, N-[(1-deoxy-α-L-fucopyranosyl)acetyl]-L-alanine-L-proline-L-phenylalanine] | inhibit the binding of sLe^x to L-selectin | – | inhibit the binding of sLe^x to P-selectin | inhibitory effects |
| C[C@@H]1O[C@@H](CC(=O)N[C@@H](CCCCNC(=O)OC(C)(C)C)C(=O)O)[C@@H](O)[C@H](O)[C@@H]1O [#3, N-ω-t-butoxylcarbonyl-N-α-[(1-deoxy-α-L-fucopyranosyl)acetyl]-L-lysine] | inhibit the binding of sLe^x to L-selectin | inhibit the binding of sLe^x to P-selectin | – | inhibitory effects |
| C[C@@H]1O[C@@H](CCCC(=O)N2CCC[C@H]2C(=O)N[C@@H](Cc2ccccc2)C(=O)O)[C@@H](O)[C@H](O)[C@@H]1O [#4, N-[4-(1-deoxy-α-L-fucopyranosyl)n-butanoyl]-L-proline-L-phenylalanine] | inhibit the binding of sLe^x to L-selectin | inhibit the binding of sLe^x to P-selectin | – | inhibitory effects |
| C[C@@H]1O[C@@H](CC(=O)N2CCC[C@H]2C(=O)N[C@H](C(=O)O)c2ccccc2)[C@@H](O)[C@H](O)[C@@H]1O [#5, N-[(1-deoxy-α-L-fucopyranosyl)acetyl]-L-proline-L-phenylglycine] | inhibit the binding of sLe^x to L-selectin | inhibit the binding of sLe^x to P-selectin | – | inhibitory effects |
| CC1OC(CCCC(=O)NC(Cc2ccccc2)C(=O)O)C(O)C(O)C1O [#6, N-[4-(1-deoxy-α-L-fucopyranosyl)n-butanoyl]-L-phenylalanine] | inhibit the binding of sLe^x to L-selectin | – | – | – |
